Test results from ChEMBL document CHEMBL1127844, “Molecular structures and conformational studies of triarylcyclopropyl and related nonsteroidal antiestrogens” (J Med Chem, 1994).

System: MCF7
Assay: Percent inhibition of estrogen receptor positive MCF-7 human breast cancer cell proliferation at 10e-7 M
Assay type: functional

SMILES	inhibition at 0.1 µM [%]
COc1ccc(C2(c3ccccc3)C(c3ccccc3)C2(Cl)Cl)cc1 (configuration not stated)	35
COc1ccc(C2C(Cl)(Cl)C2(c2ccc(OC)cc2)c2ccc(OCc3ccccc3)cc2)cc1 (configuration not stated)	35
COc1ccc(C2(c3ccc(OCCN(C)C)cc3)C(c3ccccc3)C2(Cl)Cl)cc1 (configuration not stated)	35
ClC1(Cl)C(c2ccccc2)C1c1ccccc1 (configuration not stated)	60
CN(C)CCOc1ccc(C2(c3ccccc3)C(c3ccccc3)C2(Cl)Cl)cc1 (configuration not stated)	41
COc1ccc(C2(c3ccc(OCc4ccccc4)cc3)C(c3ccccc3)C2(Cl)Cl)cc1 (configuration not stated)	46
CC/C(=C(\c1ccccc1)c1ccc(OCCN(C)C)cc1)c1ccccc1 [TAMOXIFEN]	52
